Results from US20070161547A1, “Modulation of survivin expression” (priority 2003, published 2007).
Oligonucleotides are written 5' to 3', each unit as a sugar letter and its base; * is a phosphorothioate linkage, no mark a phosphodiester; rarer units and linkages stand in square brackets, end groups in braces. Plain capitals give the bases only. r = 2'-OH (RNA); {P} = phosphate

Test system: human survivin mRNA
Experiment: Inhibition of human survivin mRNA by single-stranded asRNA in HUVEC, real-time quantitative PCR
Type: cell-based
Design: concentration or dose not given beside the values
Conditions: Table 7
Method: HUVEC were obtained from ATCC and routinely cultured in EBM (Clonetics Corp, Walkersille, Md.) supplemented with SingleQuots supplements. Cells were routinely passaged by trypsinizaiton and dilution when they reached 90% confluence were maintained for up to 15 passages. For cells grown in 96-well plates (10,000 cells/well), wells were washed once with 200 μL OPTI-MEM-1™ reduced-serum medium (Gibco BRL) and then treated with 130 μL of OPTI-MEM-1™ containing 12 μg/mL LIPOFECTIN™ (Gibco BRL) and the desired double-stranded compounds at a final concentration of 25 nM. After 5 hours of treatment, the medium was replaced with fresh medium. Cells were harvested 16 hours after dsRNA treatment, at which time RNA was isolated and target reduction measured by RT-PCR.
A series of single-stranded olgometric compounds (asRNA) was evaluated for their ability to inhibit human survivin in human umbilical vein endothelial cells (HUVEC). Culture methods used for HUVEC are found, for example, at www.atcc.org.
Data were obtained by real-time quantitative PCR as described in other examples herein.

| Substance | % INHIB, inhibition of human survivin mRNA levels by asRNA oligomeric compounds [%] |
| --- | --- |
| 347423 (antisense {P}-rA*rU*rC*rC*rA*rU*rG*rG*rC*rA*rG*rC*rC*rA*rG*rC*rU*rG*rC*rU) [compound 347423] | 55 |
| 347424 (antisense {P}-rA*rA*rC*rC*rC*rU*rG*rG*rA*rA*rG*rU*rG*rG*rU*rG*rC*rA*rG*rC) [compound 347424] | 69 |
| 347425 (antisense {P}-rA*rG*rG*rC*rU*rG*rG*rU*rG*rG*rC*rA*rC*rC*rA*rG*rG*rG*rA*rA) [compound 347425] | 90 |
| 347426 (antisense {P}-rA*rU*rU*rU*rG*rA*rA*rA*rA*rU*rG*rU*rU*rG*rA*rU*rC*rU*rC*rC) [compound 347426] | 60 |
| 347427 (antisense {P}-rA*rG*rC*rA*rC*rA*rG*rU*rU*rG*rA*rA*rA*rC*rA*rU*rC*rU*rA*rA) [compound 347427] | 54 |
| 347428 (antisense {P}-rA*rG*rA*rA*rG*rC*rA*rC*rC*rU*rC*rU*rG*rG*rU*rG*rC*rC*rA*rC) [compound 347428] | 60 |
| 347429 (antisense {P}-rU*rC*rC*rC*rU*rC*rA*rC*rU*rU*rC*rU*rC*rA*rC*rC*rU*rG*rG*rU) [compound 347429] | 62 |
| 347430 (antisense {P}-rG*rC*rA*rA*rA*rA*rG*rG*rG*rA*rC*rA*rC*rU*rG*rC*rC*rU*rU*rC) [compound 347430] | 66 |
| 347431 (antisense {P}-rA*rG*rG*rC*rU*rC*rU*rG*rC*rC*rC*rA*rC*rG*rC*rG*rA*rA*rC*rA) [compound 347431] | 67 |
| 347432 (antisense {P}-rC*rA*rA*rC*rA*rU*rG*rA*rG*rG*rU*rC*rC*rA*rG*rA*rC*rA*rC*rA) [compound 347432] | 66 |
